Experimental data taken from patent US11180483B2, “Substituted reverse pyrimidine Bmi-1 inhibitors” (PTC Therapeutics, Inc., priority 2012, dated 2021).

Tests used:
[1] = tested on: Bmi-1; assay: Sandwich ELISA Assay (Bmi-1 ELISA) in HT-1080 cells; type: cell-based
Outline: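 HT-1080 cells exposed to compound in 0.5% final DMSO for 40-48 h at 37 °C, then lysed. Bmi-1 was quantified by sandwich ELISA: mouse monoclonal capture, rabbit anti-Bmi-1 detection, HRP anti-rabbit and TMB. Read at OD450 (OD570 reference) against a recombinant GST-Bmi-1 standard curve (0-8000 pg/mL).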

[2] = tested on: CSC population in a BXD GBM model; assay: In Vitro Cancer Stem Cell Assay, BXD GBM model (number of neurospheres); type: cell-based; details: 13 days, stated concentrations
Procedure: In Vitro Cancer Stem Cell Assay
The effect on inhibition of Bmi-1 function and reduction in the level of Bmi-1 protein by a compound of Formula (I) or a form thereof was tested in the in vitro pediatric Baylor Xenograft Derived (BXD) brain tumor model and in cells from primary patient cultures (PPC).
Cells were grown under conditions to measure either general cell growth (such as in fetal bovine serum (FBS) containing media in conventional tissue culture plates) or in conditions specifically for cancer stem cell (CSC) growth (low serum, nonadherent plates) to assess the effect of Bmi-1 inhibition and reduction in the level of Bmi-1 protein by a compound of Formula (I) on these populations. The cells were treated with a predetermined dose range of Compound 109 at fixed time points over a time period of from 24 hours to 13 days. The effect of inhibition on cell growth viability was quantitated using conventional 2D growth and neurosphere growth using a cell-counting kit (CCK) (supplied by Dojindo Molecular Technologies, Inc.).

[3] = tested on: U87-MG tumor cells; assay: In Vivo Survival Assay, orthotopic model of glioblastoma; set-up: species or system nu/nu mice; details: daily dosing begun 10 days after intracranial implantation, 40 day time period, versus vehicle and temozolomide (p<0.0001)
Procedure: A glioblastoma animal model was developed in which U87-MG tumor cells were injected intracranially into nu/nu mice and a tumor was allowed to become established over a 10 day period. The mice were dosed daily with vehicle, Compound 109 or temozolomide (a standard-of-care agent), as indicated. The comparative results for survival for each treatment group (n=10) from administration of vehicle, Compound 109 and temozolomide are shown in FIG. 4.
Cells were implanted intracranially into nude mice and dosing was begun 10 days later with either vehicle, Compound 109 or temozolomide.

| Structure (SMILES) | EC50 [1] | melting point | CSC population (as measured by number of neurospheres), FIG. 1 [2] | CSC population (as measured by number of neurospheres), FIG. 2 [2] | survival of tumor bearing mice, FIG. 4 [3] |
| --- | --- | --- | --- | --- | --- |
| Nc1cc(Nc2ccc(C(F)(F)F)cc2)nc(-n2c(C(F)F)nc3ccccc32)n1 [Cpd 152, 2-[2-(difluoromethyl)-1H-benzimidazol-1-yl]-N-[4-(trifluoromethyl)phenyl]pyrimidine-4,6-diamine] | 10 to 100 nM | 187 to 188 °C | – | – | – |
| Cc1nc2ccc(F)cc2n1-c1nc(N)c(F)c(Nc2ccc(C(F)(F)F)cc2)n1 [Cpd 109, 5-fluoro-2-(6-fluoro-2-methyl-1H-benzimidazol-1-yl)-N-[4-(trifluoromethyl)phenyl]pyrimidine-4,6-diamine] | 10 to 100 nM | – | dose dependently reduced | universally reduced | extended survival |
| CCc1nc2ccc(F)cc2n1-c1nc(N)cc(Nc2ccc(C(F)(F)F)cc2)n1 [Cpd 81, 2-(2-ethyl-6-fluoro-1H-benzimidazol-1-yl)-N-[4-(trifluoromethyl)phenyl]pyrimidine-4,6-diamine] | 10 to 100 nM | 201 to 203 °C | – | – | – |
| CCc1nc2ccc(F)cc2n1-c1nc(N)cc(Nc2ccc(OC(F)F)cc2)n1 [Cpd 144, N-[4-(difluoromethoxy)phenyl]-2-(2-ethyl-6-fluoro-1H-benzimidazol-1-yl)pyrimidine-4,6-diamine] | 10 to 100 nM | 166 to 168 °C | – | – | – |
| Nc1cc(Nc2ccc(OC(F)F)cc2)nc(-n2c(C3CC3)nc3ccc(F)cc32)n1 [Cpd 143, 2-(2-cyclopropyl-6-fluoro-1H-benzimidazol-1-yl)-N-[4-(difluoromethoxy)phenyl]pyrimidine-4,6-diamine] | 1 to 10 nM | 175 to 177 °C | – | – | – |
| Nc1cc(Nc2ccc(C(F)(F)F)cc2)nc(-n2c(C3CC3)nc3ccccc32)n1 [Cpd 149, 2-(2-cyclopropyl-1H-benzimidazol-1-yl)-N-[4-(trifluoromethyl)phenyl]pyrimidine-4,6-diamine] | 10 to 100 nM | 199 to 201 °C | – | – | – |
| Cc1nc2ccc(F)cc2n1-c1nc(N)cc(Nc2ccc(OC(F)F)cc2)n1 [Cpd 72, N-[4-(difluoromethoxy)phenyl]-2-(6-fluoro-2-methyl-1H-benzimidazol-1-yl)pyrimidine-4,6-diamine] | 10 to 100 nM | 168 to 170 °C | – | – | – |
| Cc1nc2ccc(F)cn2c1-c1nc(N)cc(Nc2ccc(OC(F)F)cc2)n1 [Cpd 69, N-[4-(difluoromethoxy)phenyl]-2-(6-fluoro-2-methylimidazo[1,2-a]pyridin-3-yl)pyrimidine-4,6-diamine] | 10 to 100 nM | 136 to 138 °C | – | – | – |
| Nc1cc(Nc2ccc(OC(F)F)c(F)c2)nc(-c2c(C3CC3)nc3ccc(F)cn23)n1 [Cpd 75, 2-(2-cyclopropyl-6-fluoroimidazo[1,2-a]pyridin-3-yl)-N-[4-(difluoromethoxy)-3-fluorophenyl]pyrimidine-4,6-diamine] | 100 to 3000 nM | 198 to 200 °C | – | – | – |
| CC(C)c1nc2ccccc2n1-c1nc(N)cc(Nc2ccc(C(F)(F)F)cc2)n1 [Cpd 151, 2-[2-(propan-2-yl)-1H-benzimidazol-1-yl]-N-[4-(trifluoromethyl]phenyl]pyrimidine-4,6-diamine] | 10 to 100 nM | 216 to 218 °C | – | – | – |
| Nc1cc(Nc2ccc(OC(F)F)c(F)c2)nc(-n2c(C3CC3)nc3ccc(F)cc32)n1 [Cpd 78, 2-(2-cyclopropyl-6-fluoro-1H-benzimidazol-1-yl)-N-[4-(difluoromethoxy)-3-fluorophenyl]pyrimidine-4,6-diamine] | 10 to 100 nM | 186 to 188 °C | – | – | – |
| Nc1cc(Nc2ccc(C(F)(F)F)cc2)nc(-c2c(C(F)(F)F)nc3ccccn23)n1 [Cpd 66, 2-[2-(trifluoromethyl)imidazo[1,2-a]pyridin-3-yl]-N-[4-(trifluoromethyl)phenyl]pyrimidine-4,6-diamine] | 10 to 100 nM | 203 to 205 °C | – | – | – |

Further lines, with some results ahead:

| EC50 [1] | melting point | Structure (SMILES) | CSC population (as measured by number of neurospheres), FIG. 1 [2] | CSC population (as measured by number of neurospheres), FIG. 2 [2] | survival of tumor bearing mice, FIG. 4 [3] |
| --- | --- | --- | --- | --- | --- |
| 1 to 10 nM | 166 to 167 °C | Cc1nc2ccccc2n1-c1nc(N)cc(Nc2ccc3c(c2)OCO3)n1 [Cpd 205, N-(1,3-benzodioxol-5-yl)-2-(2-methyl-1H-benzimidazol-1-yl)pyrimidine-4,6-diamine] | – | – | – |
| 100 to 3000 nM | 203 to 205 °C | Cc1cccc(Nc2cc(N)nc(-n3c(C)nc4ccc(F)cc43)n2)c1 [Cpd 268, 2-(6-fluoro-2-methyl-1H-benzimidazol-1-yl)-N-(3-methylphenyl)pyrimidine-4,6-diamine] | – | – | – |
| 10 to 100 nM | 141 to 142 °C | Cc1nc2ccccc2n1-c1nc(N)cc(Nc2ccc3c(c2)OC(F)(F)O3)n1 [Cpd 206, N-(2,2-difluoro-1,3-benzodioxol-5-yl)-2-(2-methyl-1H-benzimidazol-1-yl)pyrimidine-4,6-diamine] | – | – | – |
| 10 to 100 nM | 204 to 206 °C | COc1ccc(Nc2nc(-c3c(C)nc4ccc(F)cn34)nc(N)c2F)cc1 [Cpd 252, 5-fluoro-2-(6-fluoro-2-methylimidazo[1,2-a]pyridin-3-yl)-N-(4-methoxyphenyl)pyrimidine-4,6-diamine] | – | – | – |
| 1 to 10 nM | 118 to 119 °C | COc1ccc(Nc2cc(N)nc(-n3c(C)nc4ccccc43)n2)cn1 [Cpd 208, N-(6-methoxypyridin-3-yl)-2-(2-methyl-1H-benzimidazol-1-yl)pyrimidine-4,6-diamine] | – | – | – |
| 10 to 100 nM | 122 to 125 °C | Cc1nc2ccc(F)cc2n1-c1nc(N)cc(Nc2ccc(N(C)C)cc2)n1 [Cpd 266, N-[4-(dimethylamino)phenyl]-2-(6-fluoro-2-methyl-1H-benzimidazol-1-yl)pyrimidine-4,6-diamine] | – | – | – |
| 100 to 3000 nM | 103 to 105 °C | CCc1nn2ccc(F)cc2c1-c1nc(N)c(F)c(Nc2ccc(OC(F)F)cc2)n1 [Cpd 186, N-[4-(difluoromethoxy)phenyl]-2-(2-ethyl-5-fluoropyrazolo[1,5-a]pyridin-3-yl)-5-fluoropyrimidine-4,6-diamine] | – | – | – |
| 1 to 10 nM | 210 to 212 °C | Cc1ccc(Nc2nc(-c3c(C)nc4ccc(F)cn34)nc(N)c2F)cc1 [Cpd 253, 5-fluoro-2-(6-fluoro-2-methylimidazo[1,2-a]pyridin-3-yl)-N-(4-methylphenyl)pyrimidine-4,6-diamine] | – | – | – |
| 1 to 10 nM | 233 to 234 °C | COc1ccc(Nc2cc(N)nc(-n3c(C)nc4ccccc43)n2)cc1F [Cpd 207, N-(3-fluoro-4-methoxyphenyl)-2-(2-methyl-1H-benzimidazol-1-yl)pyrimidine-4,6-diamine] | – | – | – |
| 100 to 3000 nM | 212 to 215 °C | Cc1nc2ccc(F)cc2n1-c1nc(N)cc(Nc2ccc3c(c2)OC(F)(F)O3)n1 [Cpd 269, N-(2,2-difluoro-1,3-benzodioxol-5-yl)-2-(6-fluoro-2-methyl-1H-benzimidazol-1-yl)pyrimidine-4,6-diamine] | – | – | – |
| 10 to 100 nM | 183 to 185 °C | CCc1nc2ccccc2n1-c1nc(N)cc(Nc2ccc(C(F)(F)F)cc2)n1 [Cpd 153, 2-(2-ethyl-1H-benzimidazol-1-yl)-N-[4-(trifluoromethyl]phenyl]pyrimidine-4,6-diamine] | – | – | – |
